Source: patent US20010047524A1, “Methods and tissue culture media for inducing somatic embryogenesis, agrobacterium-mediated transformation and efficient regeneration of cacao plants” (priority 1997, published 2001)

Tested on: staminode and petal base explants of cacao genotype Sca-6
Test: Somatic embryogenesis from cacao floral explants cultured on PCG medium containing various concentrations of TDZ
Type: cell-based, Theobroma cacao L.
Procedure: Primary callus growth (PCG) medium was prepared by combining the following solutions and compounds (per liter): 100 ml each DKW macro solutions A and B, 10 ml DKW micro solution, 1 ml DKW vitamin solution, 20 g glucose, 250 mg glutamine, 100 mg myo-inositol, 100 ml 2,4-D solution, 10 ml TDZ solution, and 2.0 g phytagel, and the pH was adjusted to 5.8.
The staminodes and petal base explants from the four flower buds were then transferred into a Petri dish containing 30 ml of PCG medium. Any fused staminodes and petal base explants were separated and explants were distributed evenly across the medium. The Petri dishes were sealed with a double layer of parafilm and cultures were maintained in the dark at 25±2° C. for 14 days (FIG. 2a). Growth reduction, senescence, and tissue browning may occur with subculture intervals longer than 14 days.
The staminode and petal base explants were then transferred from a PCG medium to a Petri dish containing 30 ml of SCG medium. The dishes were sealed and the cultures were maintained in the dark for 14 days at 25±2° C. Globular calli were produced on the entire tissue explant at the end of this culture period (FIG. 2b).
Staminode and petal base explants and calli derived in the callus induction step were transferred to Petri dishes containing 30 ml of ED medium. Explants were cultured in the dark for 14 days at 25±2° C. Explants were then subcultured onto the fresh ED medium and maintained in the dark for another 14 days. By that time, numerous somatic embryos at globular and heart-shaped stages of development were visible on the embryogenic calli (FIG. 2c and d).
The effect of TDZ concentration on somatic embryogenesis from staminode explants of five cacao genotypes was determined and is shown in FIG. 3. Staminodes were cultured on PCG medium containing various concentrations of TDZ. […] Data were collected two months after culture initiation. Each treatment contained 20 staminodes per plate with three replicate plates. The values shown in FIG. 3 represent the average percentage rates of embryo-producing staminodes from three repeated experiments. Up to 100% of cultured staminode and over 60% of petal base explants from cacao genotype Sca-6 produced somatic embryos (FIG. 3).
The effect of TDZ concentration on somatic embryo production from staminode explants of five cacao genotypes was determined and is shown in FIG. 4. Staminodes were cultured on PCG medium containing various concentrations of TDZ. […] Data were collected two months after culture initiation. Each treatment contained 20 staminodes per plate with three replica plates. Values represent the average number of somatic embryos per responsive staminode from three repeated experiments. […]

[1] = two months after culture initiation, FIG. 4

O=C(Nc1ccccc1)Nc1cnns1 [TDZ, thidiazuron]
petal base explants that produced somatic embryos (FIG. 3): over 60%
cultured staminode explants that produced somatic embryos (PCG medium with various TDZ concentrations, then SCG and ED medium, two months after culture initiation, FIG. 3): Up to 100%
average number of primary somatic embryos per responsive staminode [1]: about 46
primary somatic embryos produced by a single staminode explant (maximum) [1]: up to 140
